Active and inactive are the calls of the source. No cut-off for these calls is given here.
Legend:
[1] = tested on: Mus musculus; experiment: Antimetastatic activity against mouse 4T1 cells xenografted in BALB/c mouse assessed as reduction of TNFalpha mRNA expression in tumor at 5 mg/kg, ip qd for 23 days by RT-PCR analysis; assay type: functional, organism-based; design: dose 5 mg/kg
[2] = tested on: TK-10; experiment: Growth inhibition of human TK10 cells after 48 hrs by sulforhodamine B assay; assay type: functional; details: TK-10, 48 h
[3] = tested on: MDA-MB-231; experiment: Antitumor activity against human MDA-MB-231 cells xenografted in nu/nu BALB/c mouse assessed as tumor growth inhibition at 20 mg/kg, ip qd for 24 days measured on day 25 relative to control; assay type: functional; details: MDA-MB-231, ip, route intraperitoneal, read-out: GI
[4] = tested on: NCI-H460; experiment: Growth inhibition of human NCI-H460 cells after 48 hrs by sulforhodamine B assay; assay type: functional; details: NCI-H460, 48 h
[5] = tested on: EKVX; experiment: Growth inhibition of human EKVX cells after 48 hrs by sulforhodamine B assay; assay type: functional
[6] = tested on: Mus musculus; experiment: Antimetastatic activity against mouse 4T1 cells xenografted in BALB/c mouse assessed as reduction of myeloid derived suppressor cells accumulation in spleen at 5 mg/kg, ip qd for 23 days by flow cytometry analysis relative to control; assay type: functional; design: scale not given: the % may be the effect or the level left; details: route intraperitoneal
[7] = tested on: NCI-H322M; experiment: Growth inhibition of human NCI-H322M cells after 48 hrs by sulforhodamine B assay; assay type: functional
[8] = tested on: Lewis lung carcinoma cell line; experiment: Antitumor activity against mouse LLC cells xenografted in C57BL/6 mouse assessed as tumor growth inhibition at 10 mg/kg, ip qd for 15 days relative to control; assay type: functional; details: 360 h, route intraperitoneal, read-out: GI
[9] = tested on: Mus musculus; experiment: Antimetastatic activity against mouse 4T1 cells xenografted in BALB/c mouse assessed as reduction of TGFbeta mRNA expression in tumor at 5 mg/kg, ip qd for 23 days by RT-PCR analysis; assay type: functional, organism-based; design: dose 5 mg/kg

With CC(=O)O[C@H]1C(=O)[C@@]2(C)[C@H]([C@H](OC(=O)c3ccccc3)[C@]3(O)C[C@H](OC(=O)[C@H](OC(=O)CCC(=O)NCCCC[C@H](NC(=O)CC[C@H](NC(=O)[C@H](C)NC(=O)/C=C/c4ccc(Cl)cc4)C(N)=O)C(N)=O)[C@H](NC(=O)c4ccccc4)c4ccccc4)C(C)=C1C3(C)C)[C@]1(OC(C)=O)CO[C@@H]1C[C@@H]2O the Activity [1] was “Active”, the GI50 [2] was less than 10 nM and the inhibition in vivo at 20 mg/kg [3] was 72.2%. It also gave a GI50 [4] of less than 10 nM, a GI50 [5] of less than 10 nM and an Activity [6] of 22%. The GI50 [7] was less than 10 nM, the inhibition in vivo at 10 mg/kg [8] was 33.1% and the Activity [9] was “Active”.
